According to patent US9012475B2, “Method for enhancing anti-tumor effect of a microtubule-targeting drug, and a method for treatment of tumor” (Taiho Pharmaceutical Co., Ltd., priority 2013, dated 2015):

Assays:
human Aurora B = human Aurora B (Homo sapiens (Human), UniProt Q96GD4); test: Measurement of Aurora B kinase activity; format: biochemical; settings: ATP 40 μM, 60 minutes
Method: (§1) The inhibitory activities of a test compound against Aurora A and Aurora B were measured according to the following method.
The concentration of the compound at which 50% of the phosphorylation reaction was suppressed was defined as IC50 value (nM).

human Aurora A = human Aurora A (Homo sapiens (Human), UniProt O14965); test: Measurement of Aurora A inhibitory activity (IMAP fluorescence polarization kinase assay); format: biochemical; settings: ATP 5 μM, 25° C., 50 minutes
Method: as §1
Complementary DNA of human Aurora A was fused with a histidine tag at the amino terminal, inserted into an expression vector and highly expressed in Escherichia coli BL21-CodonPlus (DE3)-RIL strain. After Escherichia coli was recovered and lysed, human Aurora A protein fused with a histidine tag was allowed to bind to a nickel chelate column and eluted by imidazole from the column. An active fraction was desalted by a desalting column to obtain purified enzyme.
In measuring inhibitory activity of the compound, first, the test compound was serially diluted by dimethylsulfoxide (DMSO). […] To the mixture, IMAP (registered trade mark) Progressive Binding Reagent diluted 500× with IMAP (registered trade mark) Progressive Binding Buffer A (manufactured by Molecular Devices) was added to terminate the kinase reaction. […] Based on the obtained fluorescence polarization degree, the amount of phosphorylation reaction was obtained.

[1] = Evaluation of oral absorption property; format: in vivo, BALE/cA mice; settings: oral administration in 0.5% HPMC, plasma 0.5-6 hours, LCMS
Method: A test compound was suspended or dissolved in 0.5% HPMC and orally administered to BALE/cA mice. At the time points of 0.5, 1, 2, 4 and 6 hours after oral administration, blood was sampled from the back of the eye to obtain blood plasma. The concentration of the compound in the obtained blood plasma was measured by LCMS and evaluated for oral absorption property.

[2] = tested on: human-derived uterus cancer cell strain HeLa-luc; settings: Group 1: paclitaxel 10 mg/kg iv day 1 alone, 5 rats
From the text: Cells (1×10^7) of human-derived uterus cancer cell strain HeLa-luc (manufactured by PerkinElmer Co., Ltd.) having a luciferase gene introduced therein were subcutaneously grafted to the right abdomens of nude rats. At the time the volume of a tumor developed from grafted cells reached about 200 mm^3, the rats were divided into groups each consisting of 5 rats according to stratified randomization such that each group had almost the same tumor volume. […] To Group 2 and 3, paclitaxel was administered and, on the next day, Compound 1 (30 mg/kg) was orally administered twice per day for one day or 4 days (sequential administration, see FIG. 1 (A), Sequential treatment). To the rats of Group 4 and 5, paclitaxel was administered and, on the same day, Compound 1 (30 mg/kg) was orally administered twice per day for 2 days or 4 days (concurrent administration, see FIG. 1 (B), Concurrent treatment). Compound 1 was suspended or dissolved in 0.5% (w/v) hydroxypropyl methyl cellulose (HPMC). Paclitaxel was dissolved in Cremophor EL and anhydrous ethanol, diluted with physiological saline so as to obtain a predetermined concentration and put in use.
The presence or absence of a therapeutic effect was determined by measuring the major axis and minor axis of a tumor with time and obtaining a tumor volume (TV), relative tumor volume (RTV) and T/C (%) value (average relative tumor volume ratio of the treatment group to the control group) on day 10 after initiation of administration according to the following expressions. Tumor volume (TV)={(major axis)×(minor axis)^2}/2 Relative tumor volume (RTVn) on measurement day (n)=TVn/TV1 T/C(%)={(average RTVn of treatment group)/(average RTVn of control group)}×100
TV1 represents tumor volume at the administration initiation time
Furthermore, an individual in which a tumor disappeared was specified as CR (complete remission/complete response) and the number of cases was obtained.

Sequence of human Aurora A (O14965 whole entry): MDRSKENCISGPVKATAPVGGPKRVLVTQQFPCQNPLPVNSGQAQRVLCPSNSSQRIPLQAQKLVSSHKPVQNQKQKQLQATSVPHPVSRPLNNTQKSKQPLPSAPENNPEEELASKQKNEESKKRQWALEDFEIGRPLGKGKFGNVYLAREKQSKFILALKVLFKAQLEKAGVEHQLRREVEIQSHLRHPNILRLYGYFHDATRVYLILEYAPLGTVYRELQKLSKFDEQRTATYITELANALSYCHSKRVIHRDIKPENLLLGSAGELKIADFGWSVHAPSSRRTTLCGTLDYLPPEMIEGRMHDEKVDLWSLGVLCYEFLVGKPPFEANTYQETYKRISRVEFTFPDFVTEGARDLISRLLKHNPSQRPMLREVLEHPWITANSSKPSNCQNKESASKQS
Sequence of human Aurora B (Q96GD4 whole entry): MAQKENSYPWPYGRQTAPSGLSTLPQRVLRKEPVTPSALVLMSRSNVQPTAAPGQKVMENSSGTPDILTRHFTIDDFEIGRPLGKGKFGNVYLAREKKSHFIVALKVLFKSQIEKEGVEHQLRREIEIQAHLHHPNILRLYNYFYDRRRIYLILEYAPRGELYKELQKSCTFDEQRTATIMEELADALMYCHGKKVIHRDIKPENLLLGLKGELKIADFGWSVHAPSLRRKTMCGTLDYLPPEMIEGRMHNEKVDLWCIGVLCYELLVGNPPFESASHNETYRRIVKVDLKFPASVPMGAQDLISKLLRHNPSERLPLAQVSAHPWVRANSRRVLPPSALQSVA
Sequence of human Aurora B (Q9NQS7 803-916 partner): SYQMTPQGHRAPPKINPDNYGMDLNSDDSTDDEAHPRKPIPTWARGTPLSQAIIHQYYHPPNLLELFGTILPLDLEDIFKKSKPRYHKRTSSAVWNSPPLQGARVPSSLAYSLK

Structure (SMILES)	IC50 (human Aurora B) [nM]	IC50 (human Aurora A) [nM]	oral absorption property (concentration in blood plasma) [1]	number of CR cases [2]
Cc1cc(Nc2nc(CC3(C(=O)N4CCC4)CCN(C(=O)c4cccc(Cl)c4F)CC3)ccc2F)n[nH]1 [Production Example 19, azetidin-1-yl(1-(3-chloro-2-fluorobenzoyl)-4-((5-fluoro-6-(5-methyl-1H-pyrazol-3-ylamino)pyridin-2-yl)methyl)piperidine-4-yl)methanone]	880	1	–	–
Cc1cc(Nc2nc(CC3(c4nnc(C)o4)CCN(C(=O)c4cccc(Cl)c4F)CC3)ccc2F)n[nH]1 [Production Example 28, (3-chloro-2-fluorophenyl)(4-((5-fluoro-6-(5-methyl-1H-pyrazol-3-ylamino)pyridin-2-yl)methyl)-4-(5-methyl-1,3,4-oxadiazol-2-yl)piperidine-1-yl)methanone]	450	0.7	–	–
CNC(=O)C1(Cc2ccc(F)c(Nc3cc(C)[nH]n3)n2)CCN(C(=O)c2cccc(Cl)c2F)CC1 [Production Example 14, 1-(3-chloro-2-fluorobenzoyl)-4-((5-fluoro-6-(5-methyl-1H-pyrazol-3-ylamino)pyridin-2-yl)methyl)-N-methylpiperidine-4-carboxyamide]	460	0.9	–	–
Cc1cc(Nc2nc(CC3(C(=O)NC4CC4)CCN(C(=O)c4cccc(Cl)c4F)CC3)ccc2F)n[nH]1 [Production Example 17, 1-(3-chloro-2-fluorobenzoyl)-N-cyclopropy1-4-((5-fluoro-6-(5-methyl-1H-pyrazol-3-ylamino)pyridin-2-yl)methyl)piperidine-4-carboxyamide]	900	0.9	–	–
Cc1cc(Nc2nc(CC3(C(=O)O)CCN(C(=O)c4cccc(Cl)c4F)CC3)ccc2Cl)n[nH]1 [Production Example 12, 1-(3-chloro-2-fluorobenzoyl)-4-((5-chloro-6-(5-methyl-1H-pyrazol-3-ylamino)pyridin-2-yl)methyl)piperidine-4-carboxylic acid]	260	0.4	satisfactory oral absorption property	–
CC(=O)O[C@H]1C(=O)[C@@]2(C)[C@H]([C@H](OC(=O)c3ccccc3)[C@]3(O)C[C@H](OC(=O)[C@H](O)[C@@H](NC(=O)c4ccccc4)c4ccccc4)C(C)=C1C3(C)C)[C@]1(OC(C)=O)CO[C@@H]1C[C@@H]2O [paclitaxel, reference compound]	–	–	–	no CR cases
Cc1cc(Nc2nc(CC3(c4noc(C)n4)CCN(C(=O)c4cccc(Cl)c4F)CC3)ccc2F)n[nH]1 [Production Example 22, (3-chloro-2-fluorophenyl)(4-((5-fluoro-6-(5-methyl-1H-pyrazol-3-ylamino)pyridin-2-yl)methyl)-4-(5-methyl-1,2,4-oxadiazol-3-yl)piperidine-1-yl)methanone]	380	0.7	satisfactory oral absorption property	–
COc1ccc(CC2(C(=O)O)CCN(C(=O)c3cccc(Cl)c3F)CC2)nc1Nc1cc(C)[nH]n1 [Production Example 11, 1-(3-chloro-2-fluorobenzoyl)-4-((5-methoxy-6-(5-methyl-1H-pyrazol-3-ylamino)pyridin-2-yl)methyl)piperidine-4-carboxylic acid]	930	0.6	satisfactory oral absorption property	–
Cc1noc(C2(Cc3ccc(F)c(Nc4cc(C)[nH]n4)n3)CCN(C(=O)c3cccc(Cl)c3F)CC2)n1 [Production Example 29, (3-chloro-2-fluorophenyl)(4-((5-fluoro-6-(5-methyl-1H-pyrazol-3-ylamino)pyridin-2-yl)methyl)-4-(3-methyl-1,2,4-oxadiazol-5-yl)piperidine-1-yl)methanone]	390	0.8	–	–
Cc1cc(Nc2nc(CC3(C(=O)O)CCN(C(=O)c4cccc(Cl)c4F)CC3)ccc2F)n[nH]1 [Production Example 13, 1-(3-chloro-2-fluorobenzoyl)-4-((5-fluoro-6-(5-methyl-1H-pyrazol-3-ylamino)pyridin-2-yl)methyl)piperidine-4-carboxylic acid]	180	0.4	satisfactory oral absorption property	–
Cc1cc(Nc2nc(CC3(c4ncon4)CCN(C(=O)c4cccc(Cl)c4F)CC3)ccc2F)n[nH]1 [Production Example 24, (3-chloro-2-fluorophenyl)(4-((5-fluoro-6-(5-methyl-1H-pyrazol-3-ylamino)pyridin-2-yl)methyl)-4-(1,2,4-oxadiazol-3-yl)piperidine-1-yl)methanone]	190	0.5	–	–
Cc1cc(Nc2nc(CC3(C(=O)O)CCN(C(=O)c4cccc(C(F)(F)F)c4F)CC3)ccc2F)n[nH]1 [Production Example 2, 1-(2-fluoro-3-trifluoromethylbenzoyl)-4-((5-fluoro-6-(5-methyl-1H-pyrazol-3-ylamino)pyridin-2-yl)methyl)piperidine-4-carboxylic acid]	340	0.5	–	–
